Results as given in ChEMBL document CHEMBL2434852, “Synthesis, cytotoxicity and DNA binding of oxoazabenzo[de]anthracenes derivatives in colon cancer Caco-2 cells” (Eur J Med Chem, 2013).
Active and inactive are the calls of the source. No cut-off for these calls is given here.

Columns and labels:
DNA [1] = assay: Displacement of ethidium bromide from calf thymus DNA assessed as fluorescence quenching by fluorometric assay; assay type: nucleic-acid assay; conditions: Bos taurus
DNA [2] = assay: Binding affinity to calf thymus DNA assessed as melting temperature at 10 uM by UV-Vis spectrophotometer analysis; assay type: nucleic-acid assay; conditions: Bos taurus
Caco-2 [3] = assay: Cytotoxicity against human Caco2 cells up to 40 uM after 24 hrs by MTT assay; assay type: functional, cell-based
Caco-2 [4] = assay: Cytotoxicity against human Caco2 cells after 72 hrs by MTT assay; assay type: functional, cell-based; conditions: for IC50: Caco-2, 72 h
[5] = molecular target: DNA topoisomerase 2-alpha (Homo sapiens) (UniProt P11388); assay: Inhibition of topoisomerase 2 (unknown origin) relaxation of supercoiled pBR322 at 50 to 100 uM by agarose gel electrophoresis
DNA topoisomerase 2-alpha (Homo sapiens), sequence (P11388 whole entry): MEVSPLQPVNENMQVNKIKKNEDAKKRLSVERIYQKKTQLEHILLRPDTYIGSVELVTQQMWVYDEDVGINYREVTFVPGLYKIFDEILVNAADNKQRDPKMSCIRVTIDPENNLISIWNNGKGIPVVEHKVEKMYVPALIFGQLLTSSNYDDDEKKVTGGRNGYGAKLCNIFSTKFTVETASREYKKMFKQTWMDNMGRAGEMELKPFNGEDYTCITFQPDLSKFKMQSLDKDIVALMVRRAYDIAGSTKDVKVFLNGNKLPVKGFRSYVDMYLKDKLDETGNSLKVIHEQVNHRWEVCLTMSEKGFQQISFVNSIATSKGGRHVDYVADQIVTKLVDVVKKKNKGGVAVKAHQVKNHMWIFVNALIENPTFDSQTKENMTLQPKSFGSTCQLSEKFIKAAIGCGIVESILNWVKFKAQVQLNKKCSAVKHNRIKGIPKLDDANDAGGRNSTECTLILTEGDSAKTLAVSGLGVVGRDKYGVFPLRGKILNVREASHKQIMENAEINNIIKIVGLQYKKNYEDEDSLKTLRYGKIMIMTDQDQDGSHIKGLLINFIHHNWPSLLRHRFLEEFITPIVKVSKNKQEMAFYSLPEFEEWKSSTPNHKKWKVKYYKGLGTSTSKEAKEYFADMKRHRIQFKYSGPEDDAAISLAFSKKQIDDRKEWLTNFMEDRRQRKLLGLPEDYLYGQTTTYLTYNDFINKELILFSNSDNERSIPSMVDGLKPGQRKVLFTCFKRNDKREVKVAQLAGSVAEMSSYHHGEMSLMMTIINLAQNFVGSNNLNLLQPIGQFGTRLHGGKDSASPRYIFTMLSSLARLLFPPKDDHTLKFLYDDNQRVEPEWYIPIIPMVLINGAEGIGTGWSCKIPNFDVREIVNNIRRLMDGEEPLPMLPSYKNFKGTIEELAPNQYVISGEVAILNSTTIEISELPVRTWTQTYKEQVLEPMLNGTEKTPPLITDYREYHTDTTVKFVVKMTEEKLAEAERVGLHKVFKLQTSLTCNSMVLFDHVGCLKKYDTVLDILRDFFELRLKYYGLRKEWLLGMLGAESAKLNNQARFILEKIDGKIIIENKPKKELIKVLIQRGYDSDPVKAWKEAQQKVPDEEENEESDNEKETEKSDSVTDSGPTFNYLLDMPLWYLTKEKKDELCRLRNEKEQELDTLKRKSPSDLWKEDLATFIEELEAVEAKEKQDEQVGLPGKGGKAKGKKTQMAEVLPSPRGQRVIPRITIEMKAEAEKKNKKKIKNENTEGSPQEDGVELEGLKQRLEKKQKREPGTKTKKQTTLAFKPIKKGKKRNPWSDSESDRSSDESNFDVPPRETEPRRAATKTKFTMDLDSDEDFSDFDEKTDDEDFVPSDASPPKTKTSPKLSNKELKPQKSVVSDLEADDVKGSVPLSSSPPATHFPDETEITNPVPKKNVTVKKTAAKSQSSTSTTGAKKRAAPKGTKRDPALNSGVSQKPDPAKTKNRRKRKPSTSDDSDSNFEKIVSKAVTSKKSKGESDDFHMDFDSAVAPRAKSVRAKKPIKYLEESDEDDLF

Escherichia coli = assay: Binding affinity to Escherichia coli supercoiled pBR322 assessed as change in morphology of plasmid to more relaxed conformation at 50 to 100 uM by agarose gel electrophoresis
[6] = molecular target: T1, DNA topoisomerase 1 (Homo sapiens) (UniProt P11387); assay: Inhibition of topoisomerase 1 (unknown origin) relaxation of supercoiled pBR322 at 50 to 100 uM by agarose gel electrophoresis
T1 sequence (whole entry): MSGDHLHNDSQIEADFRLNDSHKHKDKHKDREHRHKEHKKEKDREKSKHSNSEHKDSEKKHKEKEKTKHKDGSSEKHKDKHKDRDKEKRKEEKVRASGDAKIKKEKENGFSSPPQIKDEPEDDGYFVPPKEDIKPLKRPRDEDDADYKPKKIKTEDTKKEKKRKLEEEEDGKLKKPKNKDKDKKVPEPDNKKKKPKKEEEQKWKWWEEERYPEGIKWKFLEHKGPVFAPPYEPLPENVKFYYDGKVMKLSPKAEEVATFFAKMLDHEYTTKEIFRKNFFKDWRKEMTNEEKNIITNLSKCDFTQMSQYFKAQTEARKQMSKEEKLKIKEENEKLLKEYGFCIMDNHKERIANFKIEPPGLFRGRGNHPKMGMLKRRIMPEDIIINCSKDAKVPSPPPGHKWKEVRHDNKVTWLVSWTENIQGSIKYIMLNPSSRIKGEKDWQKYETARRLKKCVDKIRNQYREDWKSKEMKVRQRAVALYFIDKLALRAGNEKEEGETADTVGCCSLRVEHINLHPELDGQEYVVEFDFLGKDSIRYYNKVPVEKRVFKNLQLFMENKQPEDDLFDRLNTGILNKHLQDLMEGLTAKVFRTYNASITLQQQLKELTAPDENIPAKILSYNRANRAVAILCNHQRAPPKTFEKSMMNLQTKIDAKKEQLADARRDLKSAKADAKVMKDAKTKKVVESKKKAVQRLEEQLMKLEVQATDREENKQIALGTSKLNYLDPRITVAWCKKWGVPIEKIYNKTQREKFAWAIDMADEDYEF

With `O=C1c2cccc(O)c2C2=NC(CO)Oc3cccc1c32` (centres undefined) the C50 (DNA [1]) was “inactive”, the Tm (DNA [2]) was 64.3 °C and the Activity (Caco-2 [3]) was “inactive”.

With `O=C1c2cccc(O)c2C2=NC(CCO)Oc3cccc1c32` (centres undefined) the C50 (DNA [1]) was “inactive”, the Tm (DNA [2]) was 57.2 °C and the Activity (Caco-2 [3]) was “inactive”.

For `COc1cccc2c1C(=O)c1c(O)c3c(c(O)c1C2=O)C[C@@](O)(C(=O)CO)C[C@@H]3O[C@H]1C[C@H](N)[C@H](O)[C@H](C)O1` [DOXORUBICIN], the Tm (DNA [2]) was 92 °C, the IC50 (Caco-2 [4]) was 5 µM and the Activity (Caco-2 [3]) was “inactive”.

With `O=C1c2cccc(O)c2C2=NC(CCCCCO)Oc3cccc1c32` (centres undefined) the C50 (DNA [1]) was “inactive”, the Tm (DNA [2]) was 59.2 °C and the Activity (Caco-2 [3]) was “inactive”.

In the case of `NCCC1CCCCN1C1N=C2c3c(O)cccc3C(=O)c3cccc(c32)O1` (centres undefined), the C50 (DNA [1]) is reported as 6 µM, the inhibition [5] is reported as “inactive” and the Tm (DNA [2]) is reported as 79.9 °C. For the same compound, the IC50 (Caco-2 [4]) was 16 µM, the Activity (Escherichia coli) was “Active” and the inhibition [6] was “inactive”. For the same compound, the Activity (Caco-2 [3]) was “inactive”.

In the case of `O=C1c2cccc(O)c2C2=NC(CCCO)Oc3cccc1c32` (centres undefined), the C50 (DNA [1]) is reported as “inactive”, the Tm (DNA [2]) is reported as 58.4 °C and the Activity (Caco-2 [3]) is reported as “inactive”.

`NCCC1CN(C2N=C3c4c(O)cccc4C(=O)c4cccc(c43)O2)CCO1` (centres undefined) was tested, and the C50 (DNA [1]) was “inactive”, the Tm (DNA [2]) was 66.2 °C and the Activity (Caco-2 [4]) was “inactive”. For the same compound, the Activity (Caco-2 [3]) was “inactive”.

With `O=C1c2cccc(O)c2C2=NC(CCCCO)Oc3cccc1c32` (centres undefined) the C50 (DNA [1]) was “inactive”, the Tm (DNA [2]) was 62.2 °C and the Activity (Caco-2 [3]) was “inactive”.
